# According to patent US5110798A, “Purine derivatives having pharmacological action” (Co Pharma Corporation S.r.l., priority 1987, dated 1992):
# Test system: neurokinin receptors such as NK-P, NK-A and NK-B
# Details: several in vitro models
compound,measurement,value
CSCC[C@H](NC(=O)[C@H](CC(C)C)NC(=O)CNC(=O)OCCCCCn1cnc2c(=O)[nH]cnc21)C(=O)O [Example 3],neurokinin-like activity,showed neurokinin-like activity
